Where two headings read alike, the source gives them in different places.
Experiments:
[1] = biological target: BTK enzyme (recombinant full-length BTK, hBTK) (Homo sapiens (Human), UniProt Q06187); test: BTK enzymatic activity LANCE TR-FRET assay; assay type: biochemical; settings: 50 pM hBTK, 25 μM ATP, 2 μM biotin-A5-peptide; compound range 1 μM to 0.017 nM; read-out: BTK binding IC50
[2] = system: adenosine uptake into HeLa cells; test: [3H]Adenosine uptake assay in HeLa cells; assay type: cell-based; settings: compound range 10 μM to 0.032 nM
Outline: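 IC50 came from a 4-parameter fit of counts per second over a ten-point, 1:3 titration (final 10 µM down to […]). Compound was applied 30 min at ambient temperature in HBSS/5% FBS before a 500 nM [3H]adenosine solution was added; uptake ran 60 min, read by Cytostar-T proximity scintillation.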

[3] = Homo sapiens, HeLa, [3H]adenosine accumulation in HeLa cells, read-out: ADU inhibition IC50
[4] = [3H]adenosine accumulation in HeLa cells, read-out: ADU inhibition IC50

Sequence of BTK enzyme (recombinant full-length BTK, hBTK) (Q06187 whole entry): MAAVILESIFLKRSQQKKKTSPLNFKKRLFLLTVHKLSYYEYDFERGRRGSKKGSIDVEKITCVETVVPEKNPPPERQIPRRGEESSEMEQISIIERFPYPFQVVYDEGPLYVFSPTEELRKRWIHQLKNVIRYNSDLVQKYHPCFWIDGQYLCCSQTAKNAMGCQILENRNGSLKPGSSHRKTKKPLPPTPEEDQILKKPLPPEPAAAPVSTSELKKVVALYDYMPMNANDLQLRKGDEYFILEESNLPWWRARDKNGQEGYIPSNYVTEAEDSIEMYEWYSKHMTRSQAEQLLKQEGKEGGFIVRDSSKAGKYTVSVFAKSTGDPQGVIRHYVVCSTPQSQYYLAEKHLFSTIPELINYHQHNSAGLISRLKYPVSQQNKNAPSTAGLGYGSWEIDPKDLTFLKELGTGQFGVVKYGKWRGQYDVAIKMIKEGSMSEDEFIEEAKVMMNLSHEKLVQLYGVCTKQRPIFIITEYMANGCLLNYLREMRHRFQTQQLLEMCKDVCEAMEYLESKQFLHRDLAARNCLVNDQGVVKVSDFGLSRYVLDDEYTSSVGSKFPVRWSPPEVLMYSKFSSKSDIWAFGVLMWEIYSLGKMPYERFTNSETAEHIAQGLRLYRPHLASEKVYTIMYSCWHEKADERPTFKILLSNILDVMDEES

## C[C@](O)(c1ccc(-c2nc([C@@H]3CC[C@H]4CCC(=O)N4C3)n3ccnc(N)c23)cc1)c1cccc(CC(F)(F)F)c1 [Example 77, (6R,8aS)-6-[8-amino-1-(4-{(1S)-1-hydroxy-1-[3-(2,2,2-trifluoroethyl)phenyl]ethyl}phenyl)imidazo[1,5-a]pyrazin-3-yl]hexahydroindolizin-3(2H)-one]
[1]
  IC50: 24.2 nM
[2]; [3]
  IC50: 1040 nM

## C[C@@](O)(c1ccc(-c2nc([C@@H]3CC[C@H]4CCC(=O)N4C3)n3ccnc(N)c23)cc1)c1cccc(CC(F)(F)F)c1 [Example 78, (6R,8aS)-6-[8-amino-1-(4-{(1R)-1-hydroxy-1-[3-(2,2,2-trifluoroethyl)phenyl]ethyl}phenyl)imidazo[1,5-a]pyrazin-3-yl]hexahydroindolizin-3(2H)-one]
[1]
  IC50: 0.17 nM
[2]; [3]
  IC50: 2850 nM

## CC(C)C(O)(c1ccc(-c2nc([C@@H]3CC[C@H]4CCC(=O)N4C3)n3ccnc(N)c23)cc1)c1cccc(C(F)(F)F)c1 (stereo partly drawn) [Example 79, (6R,8aS)-6-[8-amino-1-(4-{1-hydroxy-2-methyl-1-[3-(trifluoromethyl)phenyl]propyl}phenyl)imidazo [1,5-a]pyrazin-3-yl]hexahydroindolizin-3(2H)-one]
[1]
  IC50: 204 nM
[2]; [4]
  IC50: 1470 nM

## C[C@@](O)(c1cccc(C(F)(F)F)c1)c1ccc(-c2nc([C@@H]3CC[C@H]4CCC(=O)N4C3)n3ccnc(N)c23)c(C(F)F)c1 [Example 80, (6R,8aS)-6-{8-amino-1-[2-(difluoromethyl)-4-{(1S)-1-hydroxy-1-[3-(trifluoromethyl)phenyl]ethyl}phenyl]imidazo [1,5-a]pyrazin-3-yl}-hexahydroindolizin-3(2H)-one]
[1]
  IC50: 808 nM
[2]; [3]
  IC50: 1730 nM

## C[C@](O)(c1cccc(C(F)(F)F)c1)c1ccc(-c2nc([C@@H]3CC[C@H]4CCC(=O)N4C3)n3ccnc(N)c23)c(C(F)F)c1 [Example 81, (6R,8aS)-6-{8-amino-1-[2-(difluoromethyl)-4-{(1R)-1-hydroxy-1-[3-(trifluoromethyl)phenyl]ethyl}phenyl]imidazo [1,5-a]pyrazin-3-yl}hexahydroindolizin-3(2H)-one]
[1]
  IC50: 1000 nM
[2]; [3]
  IC50: 684 nM

## C[C@](O)(c1ccc(-c2nc([C@@H]3CC[C@H]4CCC(=O)N4C3)n3ccnc(N)c23)cc1)c1cccc(C2CCC2)c1 [Example 82, (6R,8aS)-6-(8-amino-1-{4-[(1S)-1-(3-cyclobutylphenyl)-1-hydroxyethyl]phenyl]imidazo[1,5-a]pyrazin-3-yl)hexahydroindolizin-3(2H)-one]
[1]
  IC50: 4.7 nM
[2]; [3]
  IC50: 746 nM

## C[C@@](O)(c1ccc(-c2nc([C@@H]3CC[C@H]4CCC(=O)N4C3)n3ccnc(N)c23)cc1)c1cccc(C2CCC2)c1 [Example 83, (6R,8aS)-6-(8-amino-1-{4-[(1R)-1-(3-cyclobutylphenyl)-1-hydroxyethyl]phenyl}imidazo[1,5-a]pyrazin-3-yl)hexahydroindolizin-3(2H)-one]
[1]
  IC50: 0.12 nM
[2]; [3]
  IC50: 1330 nM

## C[C@](O)(c1ccc(-c2nc([C@@H]3CC[C@H]4CCC(=O)N4C3)n3ccnc(N)c23)cc1)c1cccc(C#N)c1 [Example 84, 3-[(1S)-1-(4-{8-amino-3-[(6R,8aS)-3-oxooctahydroindolizin-6-yl]imidazo[1,5-a]pyrazin-1-yl}phenyl)-1-hydroxyethyl]benzonitrile]
[1]
  IC50: 1000 nM
[2]; [3]
  IC50: 2380 nM

## C[C@@](O)(c1ccc(-c2nc([C@@H]3CC[C@H]4CCC(=O)N4C3)n3ccnc(N)c23)cc1)c1cccc(C#N)c1 [Example 85, 3-[(1R)-1-(4-{8-amino-3-[(6R,8aS)-3-oxooctahydroindolizin-6-yl]imidazo[1,5-a]pyrazin-1-yl}phenyl)-1-hydroxyethyl]benzonitrile]
[1]
  IC50: 23.4 nM
[2]; [3]
  IC50: 3530 nM

## Nc1nccn2c([C@@H]3CC[C@H]4CCC(=O)N4C3)nc(-c3ccc(C(O)(c4cccc(C(F)(F)F)c4)C4CC4)cc3)c12 (stereo partly drawn) [Example 86, (6R,8aS)-6-[8-amino-1-(4-{cyclopropyl(hydroxy)[3-(trifluoromethyl)phenyl]methyl}phenyl)imidazo [1,5-a]pyrazin-3-yl]hexahydroindolizin-3(2H)-one]
[1]
  IC50: 1000 nM
[2]; [4]
  IC50: 589 nM

## Nc1nccn2c([C@@H]3CC[C@H]4CCC(=O)N4C3)nc(-c3ccc(C(O)(c4cccc(C(F)(F)F)c4)C4CC4)cc3)c12 (stereo partly drawn) [Example 87, (6R,8aS)-6-[8-amino-1-(4-{cyclopropyl(hydroxy)[3-(trifluoromethyl)phenyl]methyl}phenyl)imidazo [1,5-a]pyrazin-3-yl]hexahydroindolizin-3(2H)-one]
[1]
  IC50: 123 nM
[2]; [4]
  IC50: 1580 nM

## CC(O)(c1cccc(C(F)(F)F)c1)c1ccc(-c2nc([C@@H]3CC[C@H]4CCC(=O)N4C3)n3ccnc(N)c23)c(C2CC2)c1 (stereo partly drawn) [Example 88, (6R,8aS)-6-[8-amino-1-(2-cyclopropyl-4-{1-hydroxy-1-[3-(trifluoromethyl)phenyl]ethyl}phenyl)imidazo [1,5-a]pyrazin-3-yl]hexahydroindolizin-3(2H)-one]
[1]
  IC50: 576 nM
[2]; [3]
  IC50: 1100 nM

## CO[C@](C)(c1ccc(-c2nc([C@@H]3CC[C@H]4CCC(=O)N4C3)n3ccnc(N)c23)cc1)c1cccc(C(F)(F)F)c1 [Example 89, (6R,8aS)-6-[8-amino-1-(4-{(1R)-1-methoxy-1-[3-(trifluoromethyl)phenyl]ethyl}phenyl)imidazo [1,5-a]pyrazin-3-yl]hexahydroindolizin-3(2H)-one]
[1]
  IC50: 1000 nM
[2]; [3]
  IC50: 3490 nM

## CO[C@@](C)(c1ccc(-c2nc([C@@H]3CC[C@H]4CCC(=O)N4C3)n3ccnc(N)c23)cc1)c1cccc(C(F)(F)F)c1 [Example 90, (6R,8aS)-6-[8-amino-1-(4-{(1S)-1-methoxy-1-[3-(trifluoromethyl)phenyl]ethyl}phenyl)imidazo [1,5-a]pyrazin-3-yl]hexahydroindolizin-3(2H)-one]
[1]
  IC50: 1000 nM
[2]; [3]
  IC50: 969 nM

## CCc1cccc([C@@](C)(O)c2ccc(-c3nc([C@@H]4CC[C@H]5CCC(=O)N5C4)n4ccnc(N)c34)cc2)c1 [Example 92, (6R,8aS)-6-(8-amino-1-{4-[(1S)-1-(3-ethylphenyl)-1-hydroxyethyl]phenyl}imidazo[1,5-a]pyrazin-3-yl)hexahydroindolizin-3(2H)-one]
[1]
  IC50: 0.48 nM
[2]; [3]
  IC50: 619 nM

## CCc1cccc([C@](C)(O)c2ccc(-c3nc([C@@H]4CC[C@H]5CCC(=O)N5C4)n4ccnc(N)c34)cc2)c1 [Example 93, (6R,8aS)-6-(8-amino-1-(4-[(1R)-1-(3-ethylphenyl)-1-hydroxyethyl]phenyl}imidazo[1,5-a]pyrazin-3-yl)hexahydroindolizin-3(2H)-one]
[1]
  IC50: 0.15 nM
[2]; [3]
  IC50: 1380 nM

## C[C@](O)(c1ccc(-c2nc([C@@H]3CC[C@H]4CCC(=O)N4C3)n3ccnc(N)c23)cc1)c1cccc(OC2CC2)c1 [Example 94, (6R,8aS)-6-[8-amino-1-(4-{(1S)-1-[3-(cyclopropyloxy)phenyl]-1-hydroxyethyl}phenyl)imidazo[1,5-a]pyrazin-3-yl]hexahydroindolizin-3(2H)-one]
[1]
  IC50: 201 nM
[2]; [3]
  IC50: 800 nM

## C[C@@](O)(c1ccc(-c2nc([C@@H]3CC[C@H]4CCC(=O)N4C3)n3ccnc(N)c23)cc1)c1cccc(OC2CC2)c1 [Example 95, (6R,8aS)-6-[8-amino-1-(4-{(1R)-1-[3-(cyclopropyloxy)phenyl]-1-hydroxyethyl}phenyl)imidazo[1,5-a]pyrazin-3-yl]hexahydroindolizin-3(2H)-one]
[1]
  IC50: 1.8 nM
[2]; [3]
  IC50: 1980 nM

## NC(=O)C(O)(c1ccc(-c2nc([C@@H]3CC[C@H]4CCC(=O)N4C3)n3ccnc(N)c23)cc1)c1cccc(C(F)(F)F)c1 (stereo partly drawn) [Example 96, 2-(4-{8-amino-3-[(6R,8aS)-3-oxooctahydroindolizin-6-yl]imidazo[1,5-a]pyrazin-1-yl}phenyl)-2-hydroxy-2-[3-(trifluoromethyl)phenyl] acetamide]
[1]
  IC50: 576 nM
[2]; Homo sapiens, HeLa, read-out: ADU inhibition IC50 (nM), [3H]adenosine accumulation in HeLa cells
  IC50: 7140 nM

## NC(=O)C(O)(c1ccc(-c2nc([C@@H]3CC[C@H]4CCC(=O)N4C3)n3ccnc(N)c23)cc1)c1cccc(C(F)(F)F)c1 (stereo partly drawn) [Example 97, 2-(4-{8-amino-3-[(6R,8aS)-3-oxooctahydroindolizin-6-yl]imidazo[1,5-a]pyrazin-1-yl}phenyl)-2-hydroxy-2-[3-(trifluoromethyl)phenyl] acetamide]
[1]
  IC50: 894 nM
[2]; read-out: ADU inhibition IC50, [3H]adenosine accumulation in HeLa cells
  IC50: 10000 nM

## COc1cc(-c2nc([C@@H]3CC[C@H]4CCC(=O)N4C3)n3ccnc(N)c23)ccc1[C@](C)(O)c1cccc(C2CC2)c1 [Example 98, (6R,8aS)-6-(8-amino-1-{4-[(1R)-1-(3-cyclopropylphenyl)-1-hydroxyethyl]-3-methoxyphenyl}imidazo [1,5-a]pyrazin-3-yl)hexahydroindolizin-3(2H)-one]
[1]
  IC50: 0.28 nM
[2]; [3]
  IC50: 3170 nM

## COc1cc(-c2nc([C@@H]3CC[C@H]4CCC(=O)N4C3)n3ccnc(N)c23)ccc1[C@@](C)(O)c1cccc(C2CC2)c1 [Example 99, (6R,8aS)-6-(8-amino-1-{4-[(1S)-1-(3-cyclopropylphenyl)-1-hydroxyethyl]-3-methoxyphenyl}imidazo [1,5-a]pyrazin-3-yl)hexahydroindolizin-3(2H)-one]
[1]
  IC50: 10.1 nM
[2]; [3]
  IC50: 1190 nM

## CC(O)(c1cccc(C(F)(F)F)c1)c1ccc(-c2nc([C@@H]3CC[C@H]4CCC(=O)N4C3)n3ccnc(N)c23)c(Cl)c1 (stereo partly drawn) [Example 100, (6R,8aS)-6-[8-amino-1-(2-chloro-4-{1-hydroxy-1-[3-(trifluoromethyl)phenyl]ethyl}phenyl)imidazo [1,5-a]pyrazin-3-yl]hexahydroindolizin-3(2H)-one]
[1]
  IC50: 17.4 nM
[2]; [3]
  IC50: 311 nM

Source: US10214546B2, “Btk inhibitors” (MERCK SHARP & DOHME CORP., priority 2014, dated 2019)
